Measurements as given in patent US20150037269A1, “TOPICAL COMPOSITIONS FOR TREATMENT OF EXCESSIVE SWEATING AND METHODS OF USE THEREOF” (GlaxoSmithKline Intellectual Property Development Limited, priority 2013, published 2015).

Key:
[1] = MALDI imaging of distribution in skin layers; type: in vitro ADME, human; settings: twenty-four hours after single finite topical dose
From the text: Matrix-assisted laser desorption/ionization (MALDI) has emerged as a powerful and diverse technology for analyzing the spatial distribution of endogenous and exogenous compounds directly from a tissue section. [See Seeley E H, Caprioli R M. MALDI imaging mass spectrometry of human tissue: method challenges and clinical perspectives. Trends Biotechnol. 29(3), 136-143 (2011); and Svatos A. Mass spectrometric imaging of small molecules. Trends Biotechnol. 28(8), 425-434 (2010)]. […] Anal Bioanal Chem. (2013); 405(4):1159-70]. MALDI imaging in human skin tissue sections: focus on various matrices and enzymes.

[2] = Clinical study: single radiolabelled topical dose to axilla or palm of healthy male subjects; type: in vivo, human; settings: for Cmax: male, human, plasma, topical, 3.05 mg
Method: Up to four cohorts were to be enrolled (Cohort A: unoccluded axilla; Cohort B: occluded axilla; Cohort C: unoccluded palm; Cohort D: occluded palm). Six subjects were to be dosed in each cohort and complete the study procedures.
On the day of dosing, subjects will receive the study drug applied to the axilla or palm. Each subject will only receive a single dose of study drug which will be applied to the test site and remain on the application site for 8 hours. Serial blood samples will be collected throughout treatment. An interim analysis using simulations will be conducted after each cohort to determine the likelihood of exceeding the safety cover for Cmax or AUC and the likelihood of obtaining quantifiable concentrations sufficient to determine the half-life in the subsequent cohorts.

[3] = Population pharmacokinetic model (IV plus dermal occluded axilla data); type: in vivo, human
From the text: Of the drug that was available systemically, 9.70% (66.7%) was absorbed through a zero order process.

[4] = cited from earlier work
[5] = Irritation potential of topical solution; settings: solution comprising 2.2% w/w
[6] = PopPK, IV and dermal occluded axilla

## OC(c1ccccc1)(c1ccccc1)C12CC[N+](CCOCc3ccccc3)(CC1)CC2 [umeclidinium, 4-[hydroxy(diphenyl)methyl]-1-{2-[(phenylmethyl)oxy]ethyl}-1-azoniabicyclo[2.2.2]octane]
[1]
  qualitative distribution in skin layers: penetrated to the deeper sections of the dermis and accumulated in the area where the sweat glands are present
[2]; occluded axilla (Cohort B), CV 122%
  Cmax: 7.92 pg/mL
[2]; unoccluded axilla (Cohort A), CV 144%
  Cmax: 2.33 pg/mL
[2]; occluded axilla (Cohort B), post dose
  samples quantifiable up to: 16 to 72 h
[2]; occluded axilla (Cohort B), range 69.2%-81.7%
  mean percent dose recovered from the skin surface: 75.4%
[2]; occluded axilla (Cohort B), range 2 h-24 h
  median time to maximum concentration: 13 h
[2]; occluded palm (Cohort D)
  plasma concentrations: no quantifiable plasma concentrations
[2]; occluded palm (Cohort D), range 45.6%-59.9%
  mean percent dose recovered from the skin surface: 52.5%
[2]; unoccluded axilla (Cohort A), end of 8 hour application, range 77.7-84.1%
  mean percent dose recovered from the skin surface: 80.6%
[2]; unoccluded axilla (Cohort A), one subject, post-dose
  quantifiable plasma concentrations up to: up to 72 hours
[2]; unoccluded axilla (Cohort A), range 12 h-30 h
  median time to maximum plasma concentration: 13 h
[3]; [6]
  CL2 Intercompartmental Clearance, Mean (RSE %): 39376 (26.0%) mL/h
  CL Elimination clearance, Mean (RSE %): 45241 (23.6%) mL/h
  F1 Fraction of the bioavailable drug absorbed through a zero order process, Mean (RSE %): 0.097 (66.7%)
  Ka First order absorption rate constant, Mean (RSE %): 0.094 (54.1%)
  Tlag Lag time for the first order absorption process, Mean (RSE %): 8.61 (15.3%) hr
  V1 Volume of central compartment, Mean (RSE %): 7726 (17.6%) mL
  V2 Volume of peripheral compartment, Mean (RSE %): 261058 (57.3%) mL
[3]; PopPK, fraction
  F Absolute plasma bioavailability following administration to occluded axilla, Mean (RSE %): 0.0019 (55.3%)
[3]; human, plasma, topical, 3.05 mg, occluded axilla, RSE 55.3%, read-out: estimated absolute plasma bioavailability
  bioavailability: 0.19%
[3]; occluded axilla, RSE 66.7%
  share of systemically available drug absorbed through a zero order process: 9.70%
[4]; 0.5 mg inhaled once daily for 10 days
  tolerability in thorough QT study: well tolerated
[4]; oral, intravenous and oral inhalation routes
  tolerability in clinical development program: well tolerated

## OC(c1ccccc1)(c1ccccc1)C12CC[N+](CCOCc3ccccc3)(CC1)CC2 [umeclidinium bromide]
[5]
  irritation potential: low irritation potential
